The text below walks through data of patent publication US11612574B2 (priority 2020, dated 2023).

In data set [1] the test system is CD4+ and CD8+ lymphocytes. Particulars: cited from earlier work.
The target of data set [2] is T1, sigma-1 receptor (Homo sapiens, UniProt Q99720). Particulars: cited from earlier work.
The next data set deals with Candida albican. The settings on record: in vivo; cited from earlier work.
Data set [3] deals with SARS-CoV-2. The settings on record: cited from earlier work.
The next data set deals with sigma-2 receptor (Homo sapiens, UniProt Q5BJF2). The settings on record: cited from earlier work.
For data set [4], the target named is T1, sigma-1 receptor. Particulars: cited from earlier work. This is another data set of the same source.
Data set [5] relates to Vero E6 cells infected with SARS-CoV-2. Put plainly: Neutral red cytoprotection/cytotoxicity in Vero E6 cells infected with SARS-CoV-2. The settings on record: Vero E6, dose response.
The test system of another data set is Calu-3 cells. The data set is described as follows: Cell death and viability of Calu-3 cells (cytotoxicity, no virus). It counts as cell-based, human. As to the method: 4. Cytotoxicity assays were conducted in parallel, for these no virus was added.
a. Cell viability: was assessed by staining cells with the ViaStain™ Calcein AM/Hoechst/PI Viability Kit (Nexcelom, Cat #CS5-V006-1) per manufacturer's instructions and imaging with the Celígo Imaging Cytometer (Nexcelom). Briefly, live and metabolically active cells were detected using the Calcein AM stain (Ex/Em: 488/520). Dead cells were detected using the propidium iodide stain (PI, Ex/Em: 493/636). Total number of cells were detected using the Hoechst-nuclear stain (Ex/Em: 352/461). Thus, cell viability was assessed by comparing live cells counts (normalized to total cell count) across treatment groups, and cell cytotoxicity was assessed through comparison of dead cell counts (normalized to total cells) across treatment groups.

Data set [6] deals with interleukin-1beta and TNF-alpha. The settings on record: in vivo; cited from earlier work.
A further data set has as its target sigma. Particulars: non-selective sigma binding assay; cited from earlier work.
Data set [7] deals with SARS-CoV-2. It counts as cell-based.

T1 sequence (Q99720 whole entry, species assumed): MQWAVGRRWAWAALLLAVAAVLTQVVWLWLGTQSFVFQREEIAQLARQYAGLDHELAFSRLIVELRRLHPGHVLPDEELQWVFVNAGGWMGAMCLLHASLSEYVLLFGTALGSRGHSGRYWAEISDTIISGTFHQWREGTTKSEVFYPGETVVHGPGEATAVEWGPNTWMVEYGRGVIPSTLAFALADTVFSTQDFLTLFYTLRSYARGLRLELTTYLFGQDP
Chain of sigma-2 receptor (Q5BJF2 whole entry): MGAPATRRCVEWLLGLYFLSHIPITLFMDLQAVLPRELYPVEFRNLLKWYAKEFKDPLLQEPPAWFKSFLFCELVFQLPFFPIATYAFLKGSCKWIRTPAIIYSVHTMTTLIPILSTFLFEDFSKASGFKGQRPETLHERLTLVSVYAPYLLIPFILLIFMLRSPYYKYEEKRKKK

With `CCN[C@@H](C)Cc1cccc(C(F)(F)F)c1` (racemic) [dexfenfluramine], the “number of CD4+ and CD8+ lymphocytes that produced IFN-gamma” value in data set [1] (HIV+ or HIV- patients) is recorded as “increased”. The “number of CD8+ lymphocytes that produce TNF-alpha” value in data set [1] (HIV+ patients) is “increased”. For the same molecule, in data set [1] (lymphocytes from HIV+ patients), the “amount of IL-2 produced by CD4+ and CD8+ lymphocytes” value was “increased”. Also, the sigma-1 receptor modulation entry on sigma-1 receptor [2] is recorded as “positive modulators”. Moreover, in the data set on Candida albican, the “CD3+ and CD8+ lymphocytes” value is “marked increase”; the “numbers of NK1.1+ cells” value is “modest increase”.
On to `O=C(CCCN1CCC(O)(c2ccc(Cl)cc2)CC1)c1ccc(F)cc1` [Haloperidol], for which, in the data set on SARS-CoV-2 [3], the “inhibition of SARS-CoV-2 in vitro” value is recorded as “inhibit”. Further, the “binding/activity at sigma-2 receptor” value at sigma-2 receptor was “low nM range”.
Consider `CCN(CC)CCCC(C)Nc1ccnc2cc(Cl)ccc12` (centres unmarked) [Chloroquine], for which the “binding/activity at sigma-1 receptor” value on sigma-1 receptor [4] is “mid-nM activity”. Also, on sigma-2 receptor, the “binding/activity at sigma-2 receptor” value was “low uM activity”.
A word on the Ki: it is a dissociation constant, usually derived from enzyme kinetics or from competition with a known ligand. As for `CCNC(C)Cc1cccc(C(F)(F)F)c1` (racemic) [fenfluramine, (RS)—N-ethyl-1-[3-(trifluoromethyl)phenyl]propan-2-amine], the “neutral red signal, virus infected cells” value in [5] (SARS-CoV-2 infected MOI 0.1, FIG. 4B) was about 0.2. Moreover, the “neutral red signal, uninfected cells” value in data set [5] (uninfected cells, FIG. 4B) is on record as about 1.0. Besides, the “cytotoxicity (cell death and viability versus controls)” value is reported as “not cytotoxic” with Calu-3 cells (20 μg/ml) and “cytotoxic” in the data set on Calu-3 cells (40 μg/ml). Also, the “production of interleukin-1beta and TNF-alpha” value in data set [6] is “suppressed”. On sigma, the Ki was 266 nM. Also, on sigma-1 receptor [2], the sigma-1 receptor modulation entry is reported as “positive allosteric modulator”. In addition, the “average viral replication (mNeonGreen fluorescence normalized to total cell count)” value in the data set with SARS-CoV-2 [7] is given as “about 2·10^3”. In addition, the “SARS-CoV-2 viral replication compared with control cells receiving only vehicle” value in the data set on SARS-CoV-2 [7] (Calu-3 cells, 50 mM fenfluramine as printed, 72 hr) is “statistically significantly (p<0.0001) lower”.
As to `CCN(CCO)CCCC(C)Nc1ccnc2cc(Cl)ccc12` (centres unmarked) [hydroxy-chloroquine], the “inhibition of SARS-CoV-2 in vitro” value with SARS-CoV-2 [3] is “inhibit”.
